Source: patent US8026211B2, “Methods and formulations for increasing intestinal function” (Technion Research & Development Foundation Ltd., priority 2004, dated 2011)

Tests used:
Type in all cases: in vivo
[1] = test system: rat model of short bowel syndrome; assay: Rat model of SBS: histology, villus height and crypt depth
Procedure: Animal treatment: Animals were obtained from the Rappaport Faculty of Medicine (Technion, Haifa, Israel). Male rats weighing 240-260 g were kept in individual stainless steel cages at constant temperature and humidity, and a 12-hour light-dark cycle was maintained. Rats were fasted 12 hours prior to the experiment with free access to water. Animals underwent one of two surgical procedures: bowel transection and re-anastomosis or 75% bowel resection and anastomosis. General anesthesia was induced with Pentobarbital (IP 40 mg/kg). Using sterile techniques, the abdomen was opened using a midline incision. In sham rats, simple bowel transection and end-to-end re-anastomosis was performed 15 cm proximal to ileo-cecal junction. In SBS animals, small bowel was resected from a point 5 cm distal to the ligament of Treitz to a point 10 cm proximal to the ileo-cecal junction. Bowel continuity was restored by end-to-end anastomosis using 5-0 Vicryl interrupted sutures. For all operations, the abdominal cavity was closed in two layers with a running suture of 3-0 Dexon. Prior to closure of the abdomen, the rats were resuscitated with a 3 ml intraperitoneal injection of warm normal saline. Rats were fasted for 24 hours but were allowed free access to water.
(§1) Group C—SBS-Insulin (SBS-INS, n=13) rats underwent bowel resection and were fed regular chow diet and water containing insulin (ACTRAPID insulin, NOVO NORDISK, Denmark) at concentration of 1 u/ml. Food and fluid intake of animals were monitored as well as weight for a period of 14 days following treatment after which the animals were sacrificed following intraperitoneal injection of pentobarbital (75 mg/kg).
Segments of small bowel were fixed for 24 hours in 10% formalin and processed into standard paraffin blocks. Five-micron tissue slices stained with hematoxylin-eosin. The sections were studied microscopically using a micrometer eyepiece. Histological images were loaded on a 760×570 pixels resolution buffer using a computerized image analysis system composed of a trichip RGB video-camera (Sony, Japan), installed on a light microscope (Zeiss, Germany) and attached to an IBM compatible personal computer (Pentium III, MMX, 450 mhz, 125 MB RAM), equipped with a frame grabber. […] The villus height and crypt depth were measured using the Image Pro Plus 4 image analysis software (Media Cybernetics, Baltimore, Md., USA). Ten villi and crypts in each section were measured and the mean reading was recorded in microns.

enterocytes = assay: Rat ischemia-reperfusion injury: enterocyte apoptosis (TUNEL assay); conditions: IR rats, oral insulin; IR-untreated 2.8±0.7; p<0.05
Procedure: (§2) Surgical procedure: Following overnight fasting, the animals were anesthetized with intraperitoneal injection of pentobarbital (IP 40 mg/kg). Using sterile techniques, the abdomen was opened using a midline incision. […] IR underwent laparotomy, mobilization and occlusion of SMA and portal vein by vascular clamp for 30 minutes followed by a reperfusion period of 24 hours. Before closure of the abdomen, the rats were resuscitated with a 3-ml intraperitoneal injection of warm 0.9% saline. For all operations, the abdominal cavity was closed in two layers with a running suture of Dexon “S” Polyglycolic Acid 3/0. Rats were allowed free access to water and food. Twenty-four hours later, the rats were anesthetized with intraperitoneal pentobarbital (75 mg/kg) and were sacrificed by open pneumothorax.
Apoptotic cells were identified using the terminal deoxynucleotidyl transferase-mediated, dUTP nick end-labeling (TUNEL) assay. Terminal deoxynucleotidyl transferase (TdT) (Boehringer Mannheim GmbH, Mannheim, Germany) was used to label DNA strand breaks. Incorporation of fluorescein was detected by anti-fluorescein antibody Fab fragments from sheep, conjugated with horse-radish peroxidase (POD) (Boehringer Mannheim GmbH, Mannheim, Germany). Briefly, five-micrometer paraffin-embedded sections were dewaxed and rehydrated with xylene and graded alcohol. […]

[2] = test system: jejunal and ileal crypt cells; assay: Rat ischemia-reperfusion injury: crypt cell proliferation (5-BrdU); conditions: IR rats, oral insulin, p<0.05
Procedure: as §2
Enterocyte proliferation and apoptosis: Crypt cell proliferation was assessed using 5-bromodeoxyuridine (5-BrdU). Standard BrdU labeling reagent (Zymed Laboratories, Inc, San Francisco, Calif.) was injected intraperitoneally at a concentration of 1 ml/100 g body weight 2 hours prior to sacrifice. […] An index of proliferation was determined as the ratio of crypt cells staining positively for BrdU per 10 crypts.

[3] = test system: jejunal and ileal crypt cells; assay: Rat model of SBS: crypt cell proliferation (5-BrdU incorporation); conditions: SBS rats, oral insulin, vs SBS-untreated, p<0.05
Procedure: Animal treatment: Animals were obtained from the Rappaport Faculty of Medicine (Technion, Haifa, Israel). Male rats weighing 240-260 g were kept in individual stainless steel cages at constant temperature and humidity, and a 12-hour light-dark cycle was maintained. Rats were fasted 12 hours prior to the experiment with free access to water. Animals underwent one of two surgical procedures: bowel transection and re-anastomosis or 75% bowel resection and anastomosis. General anesthesia was induced with Pentobarbital (IP 40 mg/kg). Using sterile techniques, the abdomen was opened using a midline incision. […]
as §1
Crypt Cell Proliferation and Enterocyte Apoptosis: Rats were injected with standard 5-bromodeoxyuridine (5-BrdU) labeling reagent (Zymed Lab, Inc, CA) at dose 1 ml per 100 g body weight two hours prior to sacrifice. […] An index of proliferation was determined as the ratio of crypt cells staining positively for BrdU per 10 crypts.

[4] = SBS-insulin rats vs SBS-untreated, 14 days, p<0.05

Substance: insulin
- villi height in jejunum ([1]; SBS rats, oral insulin, vs SBS-untreated): not associated with an increase
- increase in ileal crypt depth [1, 4]: 40%
- increase in ileal villus height [1, 4]: 15%
- increase in jejunal crypt depth [1, 4]: 15%
- apoptotic index in ileum (enterocytes): 1.2±0.4 TUNEL positive cells/10 villi
- enterocyte proliferation index in ileum ([2]; IR 173±8): 289±26 BrdU positive cells/10 crypts
- enterocyte proliferation index in jejunum ([2]; IR 212±18): 298±21 BrdU positive cells/10 crypts
- additional increase in proliferation index in jejunum [3]: 36%
- increase in proliferation index in ileum [3]: 52%
